# Reference: patent US11096931B2, “Amide derivatives useful in the treatment of HBV infection or HBV-induced diseases” (Janssen Sciences Ireland Unlimited Company, priority 2019, dated 2021)
# Values joined by “and” are separate entries in the source; they are usually repeats but may differ in a detail not shown here. Equal entries are not always repeated. Where two headings read alike, the source gives them in different places.
# Assays:
# HBV = assay: anti HBV activity, HepG2.117 cell line, intracellular HBV DNA by real-time PCR; type: cell-based, hepatitis B virus; settings: Hepatitis B virus, 72 h; mean value; HepG2.117 cells, 3 days of treatment, intracellular HBV DNA; read-out: HBV-AVE-HepG2.117_intra_EC50
# Description: The anti HBV activity was measured using the HepG2.117 cell line, a stable, inducible HBV producing cell line, which replicates HBV in the absence of doxicycline (Tet-off system). The HepG2 cell line is available from ATCC® under number HB-8065. Transfection of the HepG2 cell line can be as described in Sun and Nassal 2006 Journal of Hepatology 45 (2006) 636-645 “Stable HepG2-and Huh7-based human hepatoma cell lines for efficient regulated expression of infectious hepatitis B virus”.
# For the antiviral assay, HBV replication was induced, followed by a treatment with serially diluted compound in 96-well plates. After 3 days of treatment, the antiviral activity was determined by quantification of intracellular HBV DNA using real-time PCR and an HBV specific primer set and probe.
# [1] = Cytotoxicity, ATPlite cell viability; type: cell-based; settings: human, mean value, HepG2 or HepG2.117 cells
# Description: Cytotoxicity of the compounds was tested using HepG2 or HepG2.117 cells, incubated for 4 days in the presence of compounds. The viability of the cells was assessed using the Perkin Elmer ATPlite Luminescence Assay System.”
# HT EQ solubility assay = type: physicochemical; settings: read-out: HtEq Sol; for solubility thermodynamic at 24 h: stirred 24 h
# Description: The assay was run in triplicate and was semi-automated using the Tecan Fluent for all liquid handling. 20 μL of 10 mM stock solution was dispensed in a 500 μL 96 well plate. DMSO was evaporated (Genevac). A stir bar and 400 μL of buffer/biorelevant media was added. The solution was stirred for 72 h (pH2 and pH7) or 24 h (FaSSIF and FeSSIF). The solution was filtered and the filtrate was quantified by UPLC/UV using a three-points calibration curve.
# [2] = Thermodynamic solubility assay; type: physicochemical; settings: organic solvent or mixture, thermodynamic from solid; thermodynamic solubility in PEG400
# Description: To x mg of compound 500 μL of solvent was added (max. conc. y mg/mL). After 24 h/72 h shaking/stirring the solutions were filtered (0.45 μm membrane) and the pH was recorded. The filtrate was diluted to a maximum conc. of 100 μg/mL (CH3CN/0.1N HCl 1/1) and the samples were quantified by LC/UV. Calibration standards were 100 μg/mL, 10 μg/mL and 1 μg/mL.
# [3] = Pharmacokinetics assessment in mice; type: in vivo, C57BL mice; settings: mouse; for clearance / AUC(0-t) / Cmax: male, C57BL, plasma; for clearance: IV (PEG400) 2.5 mg/kg
# Description: The pharmacokinetic profile was evaluated in fed male C57BL mice (n=3/group). Mice were i.v. injected with test compound at 2.5 mg/kg, formulated as solution in PEG400/water (70/30), and blood samples were collected from the dorsal metatarsal vein at 0.05, 0.117, 0.333, 1, 2, 4, 7, and 24 hours into EDTA-containing microcentrifuge tubes. Test compound was administered p.o. at 10 mg/kg and 50 mg/kg, formulated as solution in PEG400, and blood samples were collected from the dorsal metatarsal vein at 0.5, 1, 2, 4, 7, 12 and 24 hours into EDTA-containing microcentrifuge tubes. The blood samples were immediately centrifuged at 4° C. and the plasma was stored at −80° C. Compound concentrations from the plasma samples were analyzed using LC-MS/MS (LCMS-8050 instrument). Individual plasma concentration-time profiles were subjected to a non-compartmental pharmacokinetic analysis (NCA) using Phoenix™ WinNonlin version 6.1. (Certara, N.J., USA).
# [4] = buffer pH 2, aqueous buffer, thermodynamic from solid, pH = 2, stirred 72 h
# [5] = buffer pH 7, aqueous buffer, thermodynamic from solid, pH = 7, stirred 72 h
# [6] = thermodynamic from solid, Fessif
# [7] = thermodynamic from solid, fassif
Structure (SMILES),EC50 (HBV) [µM],CC50 at 4 days [1] [µM],also measured
Cc1c(C(=O)C(=O)NC2(c3cn[nH]n3)CC(F)(F)C2)cn(C)c1C(=O)Nc1ccc(F)c(C#N)c1 [Compound 12],0.01,> 50,solubility thermodynamic at 24 h (HT EQ solubility assay; Fessif): 41.2 µM and 25.1 µM; solubility thermodynamic at 24 h (HT EQ solubility assay; fassif): 10.2 µM and 5.4 µM
Cc1c(C(=O)C(=O)NC2(c3cn[nH]n3)CC(F)(F)C2)cn(C)c1C(=O)Nc1ccc(F)c(Cl)c1 [Compound 13],0.003,26.8,solubility [2]: > 36.4 mg/mL; clearance [3]: 0.612 L/h/kg; AUC(0-t) ([3]; PO (PEG400) 10 mg/kg): 12.5 µg·h/mL; Cmax ([3]; PO (PEG400) 10 mg/kg): 2.48 µg/mL; F ([3]; PO (PEG400) 10 mg/kg): 77.3 +/− 19.8%; F ([3]; PO (PEG400) 50 mg/kg): 121 +/− 50%; solubility thermodynamic at 72 h (HT EQ solubility assay; [4]): 1.1 µM; solubility thermodynamic at 72 h (HT EQ solubility assay; [5]): < 0.6 µM; solubility thermodynamic at 24 h (HT EQ solubility assay; [6]): 150 µM; solubility thermodynamic at 24 h (HT EQ solubility assay; [7]): 39.8 µM
Cn1cc(C(=O)C(=O)NC2(c3cn[nH]n3)CC(F)(F)C2)c(C2CC2)c1C(=O)Nc1ccc(F)c(C#N)c1 [Compound 38],0.024,> 50,
"Cn1cc(C(=O)C(=O)N[C@@]2(c3cn[nH]n3)C[C@@H]2C(F)F)cc1C(=O)Nc1ccc(F)c(C#N)c1 (single isomer, unassigned) [27*R*R]",0.273,24.3,
"Cc1c(C(=O)C(=O)N[C@@H](CC(C)(F)F)c2cn[nH]n2)cn(C)c1C(=O)Nc1ccc(F)c(C#N)c1 (single isomer, unassigned) [49*S]",0.027,> 50,
Cn1c(C#N)c(C(=O)C(=O)NC2(c3cn[nH]n3)CC(F)(F)C2)c(F)c1C(=O)Nc1ccc(F)c(C#N)c1 [Compound 50],1.28,> 50,
Cc1cc(NC(=O)c2cc(C(=O)C(=O)NC(C)(C)c3cn[nH]n3)cn2C)ccc1F [Compound 9],0.019,> 50,
Cn1cc(C(=O)C(=O)NC2(c3cn[nH]n3)CS(=O)(=O)C2)cc1C(=O)Nc1ccc(F)c(C#N)c1 [Compound 21],1.27,> 50,
Cn1cc(C(=O)C(=O)NC2(c3cn[nH]n3)CC(F)(F)C2)c(F)c1C(=O)Nc1ccc(F)c(Cl)c1 [Compound 7],0.011,13.5,
COc1c(C(=O)C(=O)NC2(c3cn[nH]n3)CC(F)(F)C2)cn(C)c1C(=O)Nc1ccc(F)c(C#N)c1 [Compound 32],0.027,31.7,
"Cc1c(C(=O)C(=O)N[C@@H](CC(F)(F)F)c2cn[nH]n2)cn(C)c1C(=O)Nc1ccc(F)c(Cl)c1 (single isomer, unassigned) [26*S]",0.018,> 50,
"Cc1c(C(=O)C(=O)N[C@H](CC(C)(F)F)c2cn[nH]n2)cn(C)c1C(=O)Nc1ccc(F)c(C#N)c1 (single isomer, unassigned) [49*R]",0.016,> 50,
Cn1cc(C(=O)C(=O)NC2(c3ncc[nH]3)CC(F)(F)C2)cc1C(=O)Nc1ccc(F)c(C#N)c1 [Compound 43],0.315,6.6,
Cc1c(C(=O)C(=O)NC(C)(c2cn[nH]n2)C(F)(F)F)cn(C)c1C(=O)Nc1ccc(F)c(C#N)c1 (centres unmarked) [Compound 51],0.013,> 50,
Cc1c(C(=O)C(=O)NC(CC(F)(F)F)c2cn[nH]n2)c(C)n(C)c1C(=O)Nc1ccc(F)c(C#N)c1 (centres unmarked) [Compound 44RS],0.004,> 50,
Cc1c(C(=O)C(=O)NC2(c3c[nH]nn3)CC(F)(F)C2)c(C)n(C)c1C(=O)Nc1ccc(F)c(C#N)c1 [Compound 28],0.008,> 50,solubility [2]: > 33.9 mg/mL; clearance [3]: 4.4 L/h/kg; AUC(0-t) ([3]; PO (PEG400) 10 mg/kg): 0.153 µg·h/mL; Cmax ([3]; PO (PEG400) 10 mg/kg): 0.085 µg/mL; AUC(0-t) ([3]; PO (PEG400) 50 mg/kg): 1.85 µg·h/mL; Cmax ([3]; PO (PEG400) 50 mg/kg): 1.63 µg/mL; F ([3]; PO (PEG400) 10 mg/kg): 6.05 +/− 3.56%; F ([3]; PO (PEG400) 50 mg/kg): 14.6 +/− 12^ %; solubility thermodynamic at 72 h (HT EQ solubility assay; [4]): < 5 µM; solubility thermodynamic at 72 h (HT EQ solubility assay; [5]): < 5 µM; solubility thermodynamic at 24 h (HT EQ solubility assay; [6]): 277 µM; solubility thermodynamic at 24 h (HT EQ solubility assay; [7]): 46.8 µM
Cc1c(C(=O)C(=O)NC2(c3cn[nH]n3)CC(F)(F)C2)cn(C)c1C(=O)Nc1ccnc(C(F)F)c1 [Compound 53],0.033,> 50,
Cn1cc(C(=O)C(=O)NC2(c3cn[nH]n3)CC(F)(F)C2)cc1C(=O)Nc1ccc(F)c(C#N)c1 [Compound 4],0.063,8.2,
Cc1c(C(=O)C(=O)NC2(c3cn[nH]n3)CC(F)(F)C2)c(Br)n(C)c1C(=O)Nc1ccc(F)c(Cl)c1 [Compound 41],0.002,7.2,
Cn1cc(C(=O)C(=O)NC2(c3cn[nH]n3)CC(F)(F)C2)c(F)c1C(=O)Nc1ccc(F)c(C#N)c1 [Compound 5],0.01,11.9,
Cn1cc(C(=O)C(=O)NC2(c3cn[nH]n3)CC(F)(F)C2)cc1C(=O)Nc1ccc(F)c(Cl)c1 [Compound 6],0.017,7.1,
Cn1cc(C(=O)C(=O)NC2(c3cn[nH]n3)CC(F)(F)C2)c(Br)c1C(=O)Nc1ccc(F)c(C#N)c1 [Compound 31],0.003,> 50,
